Measured values as given in patent US20250145585A1, “HETEROCYCLIC INHIBITORS OF IGF-1R FOR TREATMENT OF DISEASE” (HORIZON THERAPEUTICS IRELAND DAC, priority 2023, published 2025).

Target: T1, IGF-1R (Homo sapiens, UniProt P08069)
T1 construct: expressed in transfected cells
Test: Example B-2: IGF-1R Assay (PathHunter cell lines, EC80 agonist challenge, chemiluminescent detection)
Type: cell-based
Conditions: PathHunter cells, compound 60 minutes at 37° C., EC80 agonist 3 hours; read-out: IC50, Biological Activity against IGF-1R (Table B2)
Protocol: PathHunter cell lines were expanded from freezer stocks according to standard procedures. Cells were seeded in a total volume of 20 μL into white walled, 384-well microplates and incubated for the appropriate time prior to testing.
Cells are pre-incubated with compound followed by EC80 agonist challenge as follows: • R. 1. Intermediate dilution of sample stocks was performed to generate 5× sample in assay buffer. • 2. 5 μL of 5× sample was added to cells and incubated at 37° C. for 60 minutes. Vehicle concentration was 1%. • 3. 5 IL of 6× EC80 agonist in assay buffer was added to the cells and incubated at room temperature for 3 hours.
Assay signal was generated through a single addition of 12.5 or 15 μL (50% v/v) of PathHunter Detection reagent cocktail for agonist and antagonist assays respectively, followed by a one hour incubation at room temperature. Microplates were read following signal generation with a PerkinElmer Envision™ instrument for chemilumine-scent signal detection.
Compound activity was analyzed using CBIS data analysis suite (ChemInnovation, CA). Percentage inhibition was calculated using the following formula: % Inhibition=100%×(1−(mean RLU of test sample−mean RLU of vehicle control)/(mean RLU of EC80 control−mean RLU of vehicle control)). The activity for representative examples of the invention is shown in the following table, wherein A: IC50≤500 nM; B: 500 nM<IC50≤2 μM; C: 2 μM<IC50≤10 μM; D: IC50>10 μM.

T1 sequence (P08069 31-1367): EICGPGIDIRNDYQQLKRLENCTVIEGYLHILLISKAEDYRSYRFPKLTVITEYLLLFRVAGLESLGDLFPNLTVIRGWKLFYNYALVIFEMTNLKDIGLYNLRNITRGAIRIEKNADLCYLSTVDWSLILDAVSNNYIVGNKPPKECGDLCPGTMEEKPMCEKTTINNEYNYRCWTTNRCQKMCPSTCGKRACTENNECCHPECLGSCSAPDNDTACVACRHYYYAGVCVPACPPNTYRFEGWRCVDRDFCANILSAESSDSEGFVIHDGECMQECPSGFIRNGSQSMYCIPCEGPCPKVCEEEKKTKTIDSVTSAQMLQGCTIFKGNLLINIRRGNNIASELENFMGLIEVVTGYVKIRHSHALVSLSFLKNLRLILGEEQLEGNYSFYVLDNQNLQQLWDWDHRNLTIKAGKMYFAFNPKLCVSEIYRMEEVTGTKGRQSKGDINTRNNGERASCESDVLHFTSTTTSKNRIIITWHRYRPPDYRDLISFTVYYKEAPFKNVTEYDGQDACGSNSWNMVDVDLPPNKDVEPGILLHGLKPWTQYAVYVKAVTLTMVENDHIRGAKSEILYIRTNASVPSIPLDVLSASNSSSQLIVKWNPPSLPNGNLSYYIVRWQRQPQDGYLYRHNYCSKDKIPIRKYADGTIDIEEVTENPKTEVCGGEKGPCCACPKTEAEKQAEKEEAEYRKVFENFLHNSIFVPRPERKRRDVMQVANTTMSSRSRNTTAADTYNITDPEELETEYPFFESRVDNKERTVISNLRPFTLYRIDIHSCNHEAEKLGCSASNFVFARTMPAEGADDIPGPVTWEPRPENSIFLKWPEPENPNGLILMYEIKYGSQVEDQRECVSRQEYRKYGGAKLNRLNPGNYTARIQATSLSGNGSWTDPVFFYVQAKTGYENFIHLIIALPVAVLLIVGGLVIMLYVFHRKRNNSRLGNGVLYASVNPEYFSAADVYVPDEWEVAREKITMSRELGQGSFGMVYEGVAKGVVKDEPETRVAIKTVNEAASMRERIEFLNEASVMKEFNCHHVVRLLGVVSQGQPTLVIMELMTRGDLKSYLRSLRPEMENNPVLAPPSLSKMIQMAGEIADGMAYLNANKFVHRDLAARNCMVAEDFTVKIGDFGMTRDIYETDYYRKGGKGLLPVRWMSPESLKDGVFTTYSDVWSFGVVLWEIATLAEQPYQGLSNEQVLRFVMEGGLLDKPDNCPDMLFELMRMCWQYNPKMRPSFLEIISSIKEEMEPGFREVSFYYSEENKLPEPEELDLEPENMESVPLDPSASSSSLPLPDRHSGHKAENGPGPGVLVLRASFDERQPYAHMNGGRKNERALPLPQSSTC

SMILES | IC50 [nM]
CC1(C)CN(S(C)(=O)=O)c2cc(N3C(=O)N(Cc4ccnc5c4CC(=O)N5)C(C)(C)C3=O)ccc21 [Compound 37, 3-(3,3-dimethyl-1-(methylsulfonyl)indolin-6-yl)-5,5-dimethyl-1-((2-oxo-2,3-dihydro-1H-pyrrolo[2,3-b]pyridin-4-yl)methyl)imidazolidine-2,4-dione] | ≤ 500
CC1(C)C(=O)N(c2ccc(C3(C(F)(F)F)CC3)cc2)C(=O)N1Cc1ccnc2c1CCC(=O)N2 [Compound 38, 5,5-dimethyl-1-((7-oxo-5,6,7,8-tetrahydro-1,8-naphthyridin-4-yl)methyl)-3-(4-(1-(trifluoromethyl)cyclopropyl)phenyl) imidazolidine-2,4-dione] | ≤ 500
CC1(C)CN(C(=O)C2CC2)c2cc(N3C(=O)N(Cc4ccnc5c4CC(=O)N5)C(C)(C)C3=O)ccc21 [Compound 39, 3-(1-(cyclopropanecarbonyl)-3,3-dimethylindolin-6-yl)-5,5-dimethyl-1-((2-oxo-2,3-dihydro-1H-pyrrolo[2,3-b]pyridin-4-yl)methyl)imidazolidine-2,4-dione] | ≤ 500
CC1(C)C(=O)N(c2ccc(C3(C#N)CCC3)cc2)C(=O)N1Cc1ccnc2c1CC(=O)N2 [Compound 40, (1-(4-(4,4-dimethyl-2.5-dioxo-3-((2-oxo-2,3-dihydro-1H-pyrrolo[2,3-b]pyridin-4-yl)methyl)imidazolidin-1-yl)phenyl)cyclobutane-1-carbonitrile)] | ≤ 500
CC(C)(Br)Cc1cn(S(C)(=O)=O)c2cc(N3C(=O)N(Cc4ccnc5c4CC(=O)N5)C(C)(C)C3=O)ccc12 [Compound 41, 3-(3-(2-bromo-2-methylpropyl)-1-(methylsulfonyl)-1H-indol-6-yl)-5,5-dimethyl-1-((2-oxo-2,3-dihydro-1H-pyrrolo[2,3-b]pyridin-4-yl)methyl)imidazolidine-2,4-dione] | ≤ 500
Cn1nc(C(C)(C)C)cc1N1C(=O)N(Cc2ccnc3[nH]ccc23)C(C)(C)C1=O [Compound 42, 1-((1H-pyrrolo[2,3-b]pyridin-4-yl)methyl)-3-(3-(tert-butyl)-1-methyl-1H-pyrazol-5-yl)-5,5-dimethylimidazolidine-2,4-dione] | > 10000
CC1(C)C(=O)N(c2ccc3c(c2)N(S(C)(=O)=O)CC32CCC2)C(=O)N1Cc1ccnc2c1CC(=O)N2 [Compound 43, 5,5-dimethyl-3-(1′-(methylsulfonyl)spiro[cyclobutane-1,3′-indolin]-6′-yl)-1-((2-oxo-2,3-dihydro-1H-pyrrolo[2,3-b]pyridin-4-yl)methyl)imidazolidine-2,4-dione] | ≤ 500
CC1(C)C(=O)N(c2ccc(C3(C(F)(F)F)CC3)cc2)C(=O)N1Cc1ccnc2c1CS(=O)(=O)N2 [Compound 44, 1-((2,2-dioxido-1,3-dihydroisothiazolo[3,4-b]pyridin-4-yl)methyl)-5,5-dimethyl-3-(4-(1-(trifluoromethyl)cyclopropyl)phenyl) imidazolidine-2,4-dione] | > 10000
CC1(C)C(=O)N(c2ccc3c(c2)N(S(C)(=O)=O)CC32CC2)C(=O)N1Cc1ccnc2c1CC(=O)N2 [Compound 45, 5,5-dimethyl-3-(1′-(methylsulfonyl)spiro[cyclopropane-1,3′-indolin]-6′-yl)-1-((2-oxo-2,3-dihydro-1H-pyrrolo[2,3-b]pyridin-4-yl)methyl)imidazolidine-2,4-dione] | ≤ 500
CC1(C)C(=O)N(c2ccc3c(c2)N(C(=O)C2CC2)CC32CC2)C(=O)N1Cc1ccnc2c1CC(=O)N2 [Compound 46, 3-(1′-(cyclopropanecarbonyl)spiro[cyclopropane-1,3′-indolin]-6′-yl)-5,5-dimethyl-1-((2-oxo-2,3-dihydro-1H-pyrrolo[2,3-b]pyridin-4-yl)methyl)imidazolidine-2,4-dione] | ≤ 500
Cn1nc(C(C)(C)C)c(Br)c1N1C(=O)N(Cc2ccnc3c2CC(=O)N3)C(C)(C)C1=O [Compound 47, 3-(4-bromo-3-(tert-butyl)-1-methyl-1H-pyrazol-5-yl)-5,5-dimethyl-1-((2-oxo-2,3-dihydro-1H-pyrrolo[2,3-b]pyridin-4-yl)methyl)imidazolidine-2,4-dione] | 2000 to 10000
CC1(c2ccc(N3C(=O)N(Cc4ccnc5c4CC(=O)N5)C(C)(C)C3=O)cc2)CC1 [Compound 48, 5,5-dimethyl-3-(4-(1-methylcyclopropyl)phenyl)-1-((2-oxo-2,3-dihydro-1H-pyrrolo[2,3-b]pyridin-4-yl)methyl)imidazolidine-2,4-dione] | ≤ 500
CC1(C)C(=O)N(c2ccc(C(C)(C)C(F)(F)F)cc2)C(=O)N1Cc1ccnc2c1C(F)(F)C(=O)N2 [Compound 49, 1-((3,3-difluoro-2-oxo-2,3-dihydro-1H-pyrrolo[2,3-b]pyridin-4-yl)methyl)-5,5-dimethyl-3-(4-(1,1,1-trifluoro-2-methylpropan-2-yl)phenyl)imidazolidine-2,4-dione] | ≤ 500
CC(C)Cc1cn(S(C)(=O)=O)c2cc(N3C(=O)N(Cc4ccnc5c4CC(=O)N5)C(C)(C)C3=O)ccc12 [Compound 50, 3-(3-isobutyl-1-(methylsulfonyl)-1H-indol-6-yl)-5,5-dimethyl-1-((2-oxo-2,3-dihydro-1H-pyrrolo[2,3-b]pyridin-4-yl)methyl)imidazolidine-2,4-dione] | ≤ 500
CC1(C)C(=O)N(c2ccc3c(c2)OCC32CCC2)C(=O)N1Cc1ccnc2c1CC(=O)N2 [Compound 51, 5,5-dimethyl-1-((2-oxo-2,3-dihydro-1H-pyrrolo[2,3-b]pyridin-4-yl)methyl)-3-(2H-spiro[benzofuran-3,1′-cyclobutan]-6-yl)imidazolidine-2,4-dione] | ≤ 500
CC1(C)C(=O)N(c2cc3c(cc2Br)C2(CCC2)CO3)C(=O)N1Cc1ccnc2c1CC(=O)N2 [Compound 52, 3-(5-bromo-2H-spiro[benzofuran-3,1′-cyclobutan]-6-yl)-5,5-dimethyl-1-((2-oxo-2,3-dihydro-1H-pyrrolo[2,3-b]pyridin-4-yl)methyl)imidazolidine-2,4-dione] | ≤ 500
CC1(C)COc2cc(N3C(=O)N(Cc4ccnc5c4CC(=O)N5)C(C)(C)C3=O)c(Br)cc21 [Compound 53, 3-(5-bromo-3,3-dimethyl-2,3-dihydrobenzofuran-6-yl)-5,5-dimethyl-1-((2-oxo-2,3-dihydro-1H-pyrrolo[2,3-b]pyridin-4-yl)methyl)imidazolidine-2,4-dione] | 500 to 2000
CN(C)CC(=O)Nc1cc(N2C(=O)N(Cc3ccnc4c3CC(=O)N4)C(C)(C)C2=O)ccc1OC(F)(F)F [Compound 54, N-(5-(4,4-dimethyl-2,5-dioxo-3-((2-oxo-2,3-dihydro-1H-pyrrolo[2,3-b]pyridin-4-yl)methyl)imidazolidin-1-yl)-2-(trifluoromethoxy)phenyl)-2-(dimethylamino)acetamide] | ≤ 500
CC1CCc2c(CN3C(=O)N(c4ccc(C5(C(F)(F)F)CC5)cc4)C(=O)C3(C)C)ccnc2N1 (stereo not drawn) [Compound 55, 5,5-dimethyl-1-((7-methyl-5,6,7,8-tetrahydro-1,8-naphthyridin-4-yl)methyl)-3-(4-(1-(trifluoromethyl)cyclopropyl)phenyl) imidazolidine-2,4-dione] | ≤ 500
CC1(C)C(=O)N(c2ccc(C3(C(F)(F)F)CC3)cc2)C(=O)N1Cc1ccnc2c1OC[C@@H](CC#N)N2 [Compound 56, (R)-2-(8-((5,5-dimethyl-2,4-dioxo-3-(4-(1-(trifluoromethyl)cyclopropyl)phenyl)imidazolidin-1-yl)methyl)-3,4-dihydro-2H-pyrido[3,2-b][1,4]oxazin-3-yl) acetonitrile] | ≤ 500
CC1(C)C(=O)N(c2ccc(C(C)(C)C(F)(F)F)cc2)C(=O)N1Cc1ccnc2c1CC(=O)N2 [Compound 57, 5,5-dimethyl-1-((2-oxo-2,3-dihydro-1H-pyrrolo[2,3-b]pyridin-4-yl)methyl)-3-(4-(1,1,1-trifluoro-2-methylpropan-2-yl)phenyl)imidazolidine-2,4-dione] | ≤ 500
CC1(C)C(=O)N(c2ccc(C3(C(F)(F)F)CC3)cc2)C(=O)N1Cc1ccnc2c1OCC1(CC1)N2 [Compound 58, 1-((2′H,4′H-spiro[cyclopropane-1,3′-pyrido[3,2-b][1,4]oxazin]-8′-yl)methyl)-5,5-dimethyl-3-(4-(1-(trifluoromethyl)cyclopropyl)phenyl) imidazolidine-2,4-dione] | ≤ 500
CC1(C)C(=O)N(c2ccc(C3(C(F)(F)F)CCC3)cc2F)C(=O)N1Cc1ccnc2c1CC(=O)N2 [Compound 59, 3-(2-fluoro-4-(1-(trifluoromethyl)cyclobutyl)phenyl)-5,5-dimethyl-1-((2-oxo-2,3-dihydro-1H-pyrrolo[2,3-b]pyridin-4-yl)methyl)imidazolidine-2,4-dione] | ≤ 500
C[C@@H]1COc2c(CN3C(=O)N(c4ccc(S(=O)(=O)C(F)(F)F)cc4)C(=O)C3(C)C)ccnc2N1 [Compound 60, (R)-5,5-dimethyl-1-((3-methyl-3,4-dihydro-2H-pyrido[3,2-b][1,4]oxazin-8-yl)methyl)-3-(4-((trifluoromethyl)sulfonyl)phenyl) imidazolidine-2,4-dione] | ≤ 500
